# Assays:
# Type in all cases: cell-based
# Streptococcus mitis = assay: Metabolic activity, Biolog phenotype microarray; conditions: control without dipeptide = 1
# Description: (§1) The extent of metabolic activity of the tested bacteria in the presence of the above-mentioned dipeptides after 24 hours and 48 hours was investigated through a high throughput phenotype microarray system (PM) for microbial cells (Biolog Inc.). Each PM can contain up to 95 different biochemical compounds (e.g. di-peptides) that may act as substrates for bacteria as well as one negative control, not containing the substrates. Microarray plates were used in which the different wells of each plate were pre-loaded (by the manufacturer, Biolog Inc.) with different di-peptides to be tested. Each bacterial species was tested using a separate microarray plate. Thus, a single bacterial species was tested with a variety of dipeptides on each particular plate. The microarrays are based on redox technology, using cell respiration as a universal reporter. Active cell respiration results in the reduction of a tetrazolium dye and in the formation of a strong color—for example, when using the tetrazolium dye “Biolog Redox Dye Mix D”, the color changes from transparent/colourless to purple when the dye is reduced. The observation of this color change indicates which of the substrates improve the metabolic activity and health of the cells. Each bacterial species was collected from blood agar plates (incubated for 48 hours anaerobically at 37° C.) and transferred to an IF-0 Base inoculation fluid (Biolog Inc.), which is a nutritionally poor medium. The resulting cell suspension was adjusted to a transmittance of 42% (relative to the transmittance of the base inoculation fluid with no bacterial species present) at 492 nm using a BioRad SmartSpec 3000 Photometer (the adjustment being effected by adding either further inoculation fluid or further bacteria until the transmittance of 42% was achieved). A 1:5 dilution of this suspension was prepared by mixing 3 mL of the 42% transmittance cell suspension with 15 mL of an inoculation fluid (which inoculation fluid was formed by mixing 11.6 mL sterile water, 62.5 mL IF-0 base inoculation fluid and 0.9 mL of the tetrazolium dye “Biolog Redox Dye mix D”), resulting in a final cell density which was equal to 85% transmittance using a BioRad SmartSpec 3000 Photometer. 680 μL of a 2M sodium succinate/200 μM ferric citrate solution in distilled water was added to 68 mL of the 85% transmittance cell suspension and 100 μL of this mixture was added to each well (the various di-peptides being already present in powder form in the relevant wells of the plate as obtained from the supplier i.e. Biolog Inc.). All plates were incubated in an anaerobic atmosphere at 37° C. Color changes were measured spectrophotometrically at 492 nm (Thermo Scientific Multiskan Ascent) at 24 hrs and 48 hrs using the same plate at both time points. […] After 24 hrs and 48 hrs under continuous shaking in a Multiscan microplate reader, the optical density (OD) of the synthetic medium at 24 hours and 48 hours was measured (using the microplate reader) at a wavelength of 492 nm for each combination of bacterium/dipeptide, and for each of their respective controls (i.e. which contained the particular bacterium but no dipeptide). […] The experiment was carried out three times for each combination of bacterium with dipeptide, with each repeat being carried out on a different day (thus providing three biological replicas). The controls were also carried out three times, as above. The values shown are the average (mean) of the three single values obtained (as detailed above) for each combination of bacterium with dipeptide, at 24 hrs and at 48 hrs.
# Streptococcus mutans = assay: Metabolic activity, Biolog phenotype microarray; conditions: control without dipeptide = 1
# Description: as §1
# [1] = test system: Aggregatibacter actinomycetemcomitans; assay: Metabolic activity, Biolog phenotype microarray; conditions: control without dipeptide = 1
# Description: as §1
# Tannerella forsythia = assay: Metabolic activity, Biolog phenotype microarray; conditions: control without dipeptide = 1
# Description: as §1
# Veillonella parvula = assay: Metabolic activity, Biolog phenotype microarray; conditions: control without dipeptide = 1
# Description: as §1
# Streptococcus sobrinus = assay: Metabolic activity, Biolog phenotype microarray; conditions: control without dipeptide = 1
# Description: as §1
# Actinomyces naeslundii = assay: Metabolic activity, Biolog phenotype microarray; conditions: control without dipeptide = 1
# Description: as §1
# Streptococcus sanguinis = assay: Metabolic activity, Biolog phenotype microarray; conditions: control without dipeptide = 1
# Description: as §1
# Fusobacterium nucleatum = assay: Metabolic activity, Biolog phenotype microarray; conditions: control without dipeptide = 1
# Description: as §1
# Capnocytophaga sputigena = assay: Metabolic activity, Biolog phenotype microarray; conditions: control without dipeptide = 1
# Description: as §1
# Streptococcus salivarius = assay: Metabolic activity, Biolog phenotype microarray; conditions: control without dipeptide = 1
# Description: as §1
# Streptococcus gordonii = assay: Metabolic activity, Biolog phenotype microarray; conditions: control without dipeptide = 1
# Description: as §1
# Actinomyces viscosus = assay: Metabolic activity, Biolog phenotype microarray; conditions: control without dipeptide = 1
# Description: as §1
# Prevotella intermedia = assay: Metabolic activity, Biolog phenotype microarray; conditions: control without dipeptide = 1
# Description: as §1
# Porphyromonas gingivalis = assay: Metabolic activity, Biolog phenotype microarray; conditions: control without dipeptide = 1
# Description: as §1
# [2] = test system: beneficial oral bacteria and pathogenic oral bacteria; assay: Metabolic activity, whole panel: prebiotic effect; conditions: for prebiotic effects (metabolic activity): threshold value of 2
# Description: Substrates that were able to increase the metabolic activity of at least one of the above beneficial bacteria while not or only minimally increasing the growth of the pathogenic bacteria are considered to be prebiotic substrates. The extent of metabolic activity of the tested bacteria in the presence of the above-mentioned dipeptides after 24 hours and 48 hours was investigated through a high throughput phenotype microarray system (PM) for microbial cells (Biolog Inc.). Each PM can contain up to 95 different biochemical compounds (e.g. di-peptides) that may act as substrates for bacteria as well as one negative control, not containing the substrates. Microarray plates were used in which the different wells of each plate were pre-loaded (by the manufacturer, Biolog Inc.) with different di-peptides to be tested. Each bacterial species was tested using a separate microarray plate. Thus, a single bacterial species was tested with a variety of dipeptides on each particular plate. The microarrays are based on redox technology, using cell respiration as a universal reporter. Active cell respiration results in the reduction of a tetrazolium dye and in the formation of a strong color—for example, when using the tetrazolium dye “Biolog Redox Dye Mix D”, the color changes from transparent/colourless to purple when the dye is reduced. The observation of this color change indicates which of the substrates improve the metabolic activity and health of the cells. Each bacterial species was collected from blood agar plates (incubated for 48 hours anaerobically at 37° C.) and transferred to an IF-0 Base inoculation fluid (Biolog Inc.), which is a nutritionally poor medium. The resulting cell suspension was adjusted to a transmittance of 42% (relative to the transmittance of the base inoculation fluid with no bacterial species present) at 492 nm using a BioRad SmartSpec 3000 Photometer (the adjustment being effected by adding either further inoculation fluid or further bacteria until the transmittance of 42% was achieved). A 1:5 dilution of this suspension was prepared by mixing 3 mL of the 42% transmittance cell suspension with 15 mL of an inoculation fluid (which inoculation fluid was formed by mixing 11.6 mL sterile water, 62.5 mL IF-0 base inoculation fluid and 0.9 mL of the tetrazolium dye “Biolog Redox Dye mix D”), resulting in a final cell density which was equal to 85% transmittance using a BioRad SmartSpec 3000 Photometer. 680 μL of a 2M sodium succinate/200 μM ferric citrate solution in distilled water was added to 68 mL of the 85% transmittance cell suspension and 100 μL of this mixture was added to each well (the various di-peptides being already present in powder form in the relevant wells of the plate as obtained from the supplier i.e. Biolog Inc.). All plates were incubated in an anaerobic atmosphere at 37° C. Color changes were measured spectrophotometrically at 492 nm (Thermo Scientific Multiskan Ascent) at 24 hrs and 48 hrs using the same plate at both time points. […] After 24 hrs and 48 hrs under continuous shaking in a Multiscan microplate reader, the optical density (OD) of the synthetic medium at 24 hours and 48 hours was measured (using the microplate reader) at a wavelength of 492 nm for each combination of bacterium/dipeptide, and for each of their respective controls (i.e. which contained the particular bacterium but no dipeptide). […] The experiment was carried out three times for each combination of bacterium with dipeptide, with each repeat being carried out on a different day (thus providing three biological replicas). The controls were also carried out three times, as above. The values shown are the average (mean) of the three single values obtained (as detailed above) for each combination of bacterium with dipeptide, at 24 hrs and at 48 hrs. […] This value was selected in order to exclude low-stimulating metabolites and avoid false positive results.
Substance,metabolic activity: OD 492 nm divided by OD of control (Streptococcus mitis; 24 hrs),metabolic activity: OD 492 nm divided by OD of control (Streptococcus mitis; 48 hrs),metabolic activity: OD 492 nm divided by OD of control (Streptococcus mutans; 24 hrs),metabolic activity: OD 492 nm divided by OD of control (Streptococcus mutans; 48 hrs),metabolic activity: OD 492 nm divided by OD of control ([1]; 24 hrs),metabolic activity: OD 492 nm divided by OD of control ([1]; 48 hrs),metabolic activity: OD 492 nm divided by OD of control (Tannerella forsythia; 24 hrs),metabolic activity: OD 492 nm divided by OD of control (Tannerella forsythia; 48 hrs),metabolic activity: OD 492 nm divided by OD of control (Veillonella parvula; 24 hrs),metabolic activity: OD 492 nm divided by OD of control (Veillonella parvula; 48 hrs),metabolic activity: OD 492 nm divided by OD of control (Streptococcus sobrinus; 24 hrs),metabolic activity: OD 492 nm divided by OD of control (Streptococcus sobrinus; 48 hrs),metabolic activity: OD 492 nm divided by OD of control (Actinomyces naeslundii; 24 hrs),metabolic activity: OD 492 nm divided by OD of control (Actinomyces naeslundii; 48 hrs),metabolic activity: OD 492 nm divided by OD of control (Streptococcus sanguinis; 24 hrs),metabolic activity: OD 492 nm divided by OD of control (Streptococcus sanguinis; 48 hrs),metabolic activity: OD 492 nm divided by OD of control (Fusobacterium nucleatum; 24 hrs),metabolic activity: OD 492 nm divided by OD of control (Fusobacterium nucleatum; 48 hrs),metabolic activity: OD 492 nm divided by OD of control (Capnocytophaga sputigena; 24 hrs),metabolic activity: OD 492 nm divided by OD of control (Capnocytophaga sputigena; 48 hrs),other results
Ser-Gln,1.0595,1.5980,1.2511,1.7642,0.9996,1.1574,1.1929,1.4647,0.8812,0.8706,1.1504,1.6280,1.2183,1.5857,1.1901,1.6298,1.2502,1.6185,2.2409,1.6963,metabolic activity: OD 492 nm divided by OD of control (Streptococcus salivarius; 24 hrs): 1.1847; metabolic activity: OD 492 nm divided by OD of control (Streptococcus salivarius; 48 hrs): 1.6185; metabolic activity: OD 492 nm divided by OD of control (Streptococcus gordonii; 24 hrs): 0.9754; metabolic activity: OD 492 nm divided by OD of control (Streptococcus gordonii; 48 hrs): 1.4584; metabolic activity: OD 492 nm divided by OD of control (Actinomyces viscosus; 24 hrs): 1.6173; metabolic activity: OD 492 nm divided by OD of control (Actinomyces viscosus; 48 hrs): 2.0308; metabolic activity: OD 492 nm divided by OD of control (Prevotella intermedia; 24 hrs): 1.2382; metabolic activity: OD 492 nm divided by OD of control (Prevotella intermedia; 48 hrs): 1.3661; metabolic activity: OD 492 nm divided by OD of control (Porphyromonas gingivalis; 24 hrs): 1.1453; metabolic activity: OD 492 nm divided by OD of control (Porphyromonas gingivalis; 48 hrs): 1.4999; prebiotic effects (metabolic activity) ([2]; 24 hrs): exhibited prebiotic effects; prebiotic effects (metabolic activity) ([2]; 48 hrs): exhibited prebiotic effects
Ser-Leu,1.6052,2.0461,1.6244,2.2977,1.6871,2.2912,1.3950,1.8466,1.4153,1.4281,1.4887,2.0704,1.4949,1.8831,1.2625,1.6049,1.4813,1.7358,1.9645,1.6522,metabolic activity: OD 492 nm divided by OD of control (Streptococcus salivarius; 24 hrs): 1.4865; metabolic activity: OD 492 nm divided by OD of control (Streptococcus salivarius; 48 hrs): 2.0833; metabolic activity: OD 492 nm divided by OD of control (Streptococcus gordonii; 24 hrs): 1.5333; metabolic activity: OD 492 nm divided by OD of control (Streptococcus gordonii; 48 hrs): 1.8912; metabolic activity: OD 492 nm divided by OD of control (Actinomyces viscosus; 24 hrs): 2.2523; metabolic activity: OD 492 nm divided by OD of control (Actinomyces viscosus; 48 hrs): 2.5540; metabolic activity: OD 492 nm divided by OD of control (Prevotella intermedia; 24 hrs): 1.5403; metabolic activity: OD 492 nm divided by OD of control (Prevotella intermedia; 48 hrs): 1.8484; metabolic activity: OD 492 nm divided by OD of control (Porphyromonas gingivalis; 24 hrs): 1.4626; metabolic activity: OD 492 nm divided by OD of control (Porphyromonas gingivalis; 48 hrs): 1.8440; prebiotic effects (metabolic activity) ([2]; 24 hrs): exhibited prebiotic effects; speed of metabolism by beneficial versus pathogenic bacteria ([2]; value of 2 reached at 24 hrs for beneficial but not pathogenic bacteria): metabolized faster by the beneficial bacteria than by the pathogenic bacteria

# Reference: US10159640B2, “Prebiotic oral care compositions containing amino acids” (COLGATE-PALMOLIVE COMPANY, priority 2013, dated 2018)
